Laboratory results taken from patent US6528068B1, “Cosmetic composition containing N-acyl neutral amino acid esters of lower alcohols” (Ajinomoto Co., Inc., priority 1997, dated 2003).

What was measured:
[1] = solids; cited from earlier work
[2] = Jap. pat. Publn. (kokoku); cited from earlier work
[3] = Evaluation of pigment dispersibility (wetting point / flowing point); format: physicochemical; conditions: difference between wetting point and flowing point; liquid paraffin added to TiO2 containing 10% by weight of oily material
Procedure: With respect to various oily materials including some N-acylamino acid esters of the present invention, powdery compositions formed by blending each oily material with a powder pigment of titanium dioxide (TiO2) were evaluated or examined from various aspects. This will be described in detail below.
The minimum value in terms of parts by weight in which the powder was put together was defined as wetting point. […] Liquid paraffin was further added thereto from the wetting point, and the minimum numeral of parts by weight of the liquid paraffin in which the mixture came to show a fluidity was defined as flowing point.
The smaller the difference between the wetting point and the flowing point, the better the dispersibility (“Science of Fragrance”, published by Fragrance Journal in 1990, p. 390). Accordingly, the index of pigment dispersibility was evaluated in terms of the difference between the wetting point and the flowing point. That is, in Table 47, when the difference between the wetting point and the flowing point was up to 35, it was rated as ∘∘; when the difference was between 36 and 45, it was rated as ∘; and when the difference was between 46 and 55, it was rated as Δ; and when the difference was 56 or more, it was rated as ×.

[4] = Examination of solubility of a UV-A absorbent in various oily materials; conditions: amount of “Soft Shade DH” dissolved in 100 g of the oily material

SMILES | solubility in water and oil [1] | compatibility with an oily solvent [2] | Pigment dispersibility [3] | Solubility [4]
COc1ccc(C(=O)CC(=O)c2ccc(C(C)(C)C)cc2)cc1 [4-t-butyl-4′-methoxybenzoylmethane] | sparingly soluble in water and oil | – | – | –
CCCCC(CC)C(=O)N(C)CCC(=O)OC (stereo not drawn) [N-2-ethylhexanoyl-N-methyl-β-alanine.methyl ester] | – | poor | – | –
CCCCCCCCCCCC(=O)N(C)CC(=O)OCCCCCCCCCCCCCCCC(C)C [Reference Synthesis Example 1, N-lauroylsarcosine isostearyl ester] | – | – | Δ (when the difference was between 46 and 55, it was rated as Δ) | X (The amount of the compound dissolved in 100 g of the oily material is less than 5 g.)
CCCCCCCCCCCC(=O)N(C)CC(=O)OCC(CCCCCCCC)CCCCCCCCCC (stereo not shown) [Reference Synthesis Example 2, N-lauroylsarcosine octyl dodecyl ester] | – | – | – | X (The amount of the compound dissolved in 100 g of the oily material is less than 5 g.)
CCCCCCCCCCCC(=O)N(C)CC(=O)OC(C)C [Synthesis Example 14, N-laurolysarcosine isopropyl ester] | – | – | ◯◯ | ◯ (It is at least 10 g.)
CCCCCCCCCCCC(=O)N(C)CCC(=O)OC(C)C [Synthesis Example 15, N-lauroyl-N-methyl-β-alanine isopropyl ester] | – | – | ◯◯ | ◯ (It is at least 10 g.)
CCCCCCCCCCCCCCCCCC(=O)OCC(O)CO (stereo not shown) [glycerol stearate] | – | – | – | X (The amount of the compound dissolved in 100 g of the oily material is less than 5 g.)
CCCCCCCCCCCCCC(=O)OC(C)C [isopropyl myristate] | – | – | Δ (when the difference was between 46 and 55, it was rated as Δ) | X (The amount of the compound dissolved in 100 g of the oily material is less than 5 g.)
CCCCCCCCCCCC(=O)N[C@@H](CCC(=O)OCC(CCCCCCCC)CCCCCCCCCC)C(=O)OCC(CCCCCCCC)CCCCCCCCCC (stereo partly shown) [lauroylglutamic acid octyldodecyl diester] | – | – | Δ (when the difference was between 46 and 55, it was rated as Δ) | –
